Measurements reported in patent publication US20260184700A1, “PDK1 REGULATORY COMPOUND AND COMPOSITION CONTAINING THE SAME” (PROVIBIO CO., LTD., priority 2024, published 2026).

Tested on: T cells isolated from mouse spleen
Experiment: T cell proliferation inhibition, CFSE flow cytometry, CD3/CD28 activation
Type: cell-based
Details: CD3/CD28 activated, 3 days; for inhibition at 0.01 µM / inhibition at 0.1 µM / inhibition at 1 µM / inhibition at 10 µM / inhibition at 30 µM / inhibition at 50 µM: Mus musculus, T-cell, 72 h, read-out: Proliferation inhibition rate (%)
Experimental: To verify the T cell proliferation inhibitory effect of the compounds according to the present invention, the following experiment was performed based on flow cytometry analysis using carboxyfluorescein diacetate succinimidyl ester (CFSE), a fluorescent dye that binds to intracellular molecules via covalent bonds.
Spleens were extracted from 7-week-old C57BL/6 mice, ground, and then separated into single cells using a strainer (40 μm pore size, SPL). Red blood cells were removed using ACK (Ammonium-Chloride-Potassium) lysis buffer to isolate white blood cells.
Finally, using a MACS Magnetic Stand and LS column, T cells were isolated from the spleen.
The T cells isolated from the spleen were resuspended in 1 mL of free medium (RPMI-1640+200 U/mL penicillin+200 μg/mL streptomycin), and 0.3 μL of CFSE (10 mM) was added. The mixture was incubated at 37° C. for 5 minutes.
Free medium (10 mL) was added to stop the reaction, and the cells were centrifuged to obtain the cell pellet.
RPMI 1640 medium containing 10% FBS, 100 U/mL penicillin, 100 μg/mL streptomycin, and resuspended the cells. The cells were then seeded into a 96-well plate at a density of 2×10^5 cells per well and activated with CD3 and CD28 antibodies (0.5 μg/mL each) to activate T cells.
The compound diluted in DMSO was added at concentrations of 10 nM, 100 nM, 1 μM, 10 μM, 30 μM, and 50 μM, with three wells per concentration, and cultured at 37° C. and 5% CO2 for three days. The cells were then analyzed using a FACS Canto instrument.
The proliferation inhibition rate (%) was calculated using the following formula: […]

SMILES	Proliferation inhibition rate (%) (compound 100 nM)	Proliferation inhibition rate (%) (compound 1 μM)	Proliferation inhibition rate (%) (compound 10 μM)	Proliferation inhibition rate (%) (compound 30 μM)	Proliferation inhibition rate (%) (compound 50 μM)	other results
Nc1ncccc1C(=O)NCCCCCCCCCCCCN1CCC2CCCCC2C1 (centres unmarked) [Compound 16, 2-Amino-N-(12-(octahydroisoquinolin-2 (1H)-yl)dodecyl)nicotinamide]						inhibition at 0.01 µM (compound 10 nM): 4.13%; inhibition at 0.1 µM (compound 100 nM): -2.93%; inhibition at 1 µM (compound 1 μM): 100%; inhibition at 10 µM (compound 10 μM): 100%; inhibition at 30 µM (compound 30 μM): 100%; inhibition at 50 µM (compound 50 μM): 100%
Nc1ncccc1C(=O)NCCCCCCCCCCCCN1CCc2ccccc2C1 [Compound 17, 2-Amino-N-(12-(3,4-dihydroisoquinolin-2(1H)-yl)dodecyl) nicotinamide]						Proliferation inhibition rate (%) (compound 10 nM, listed as PBK-2024-004, 0.01 µM): 0.00%; Proliferation inhibition rate (%) (compound 100 nM, listed as PBK-2024-004, 0.1 µM): −14.00%; Proliferation inhibition rate (%) (compound 1 μM, listed as PBK-2024-004, 1 µM): 100.00%; Proliferation inhibition rate (%) (compound 10 μM, listed as PBK-2024-004, 10 µM): 100.00%
CC1(C)CCN(CCCCCCCCCCCCNC(=O)c2cccnc2N)C1 [Compound 22, 2-Amino-N-(12-(3,3-dimethylpyrrolidin-1-yl)dodecyl) nicotinamide]	100.00	100.00	100.00	100.00	100.00	Proliferation inhibition rate (%) (compound 10 nM): −0.80%
COC1CCN(CCCCCCCCCCCCNC(=O)c2cccnc2N)C1 (centres unmarked) [Compound 32, 2-Amino-N-(12-(3-methoxypyrrolidin-1-yl)dodecyl) nicotinamide]						Proliferation inhibition rate (%) (compound 10 nM, listed as PBK-2024-024, 0.01 µM): 0.29%
CN(CCCCCCCCCCCCNC(=O)c1cccnc1N)C1CCCCC1 [Compound 34, 2-Amino-N-(12-(cyclohexyl(methyl)amino)dodecyl) nicotinamide]	100.00	100.00	100.00	100.00	100.00	
CC1CN(CCCCCCCCCCCCNC(=O)c2cccnc2N)C(C)CN1.Cl (centres unmarked) [Compound 36, 2-Amino-N-(12-(2,5-dimethylpiperazin-1-yl)dodecyl) nicotinamide hydrochloride]	100.00	100.00	100.00	100.00	100.00	
C[C@H]1CNCCN1CCCCCCCCCCCCNC(=O)c1cccnc1N.Cl [Compound 37, (S)-2-Amino-N-(12-(2-methylpiperazin-1-yl)dodecyl) nicotinamide hydrochloride]		100.00	100.00	100.00	100.00	
CC1CCCN(CCCCCCCCCCCCNC(=O)c2cccnc2N)CC1 (centres unmarked) [Compound 39, 2-Amino-N-(12-(4-methylazepan-1-yl)dodecyl) nicotinamide]	100.00	100.00	100.00	100.00	100.00	
CC1CN(C)C(CCCCCCCCCCCCNc2ccc3cncnc3n2)N1 (centres unmarked) [Compound 43]	100.00	100.00	100.00	100.00	100.00	
Nc1ncccc1C(=O)NCCCCCCCCCCCCN1CCC(O)CC1 [Compound 48, 2-Amino-N-(12-(4-hydroxypiperidin-1-yl)dodecyl) nicotinamide]	100.00	100.00	100.00	100.00	100.00	
CN(CCCCCCCCCCCCNC(=O)c1cccnc1N)C(C)(C)C [Compound 53, 2-Amino-N-(12-(tert-butyl(methyl)amino)dodecyl) nicotinamide]	100.00	100.00	100.00	100.00	100.00	
Nc1ncccc1C(=O)NCCCCCCCCCCCCN1CCN(CCO)CC1 [Compound 54, 2-Amino-N-(12-(4-(2-hydroxyethyl)piperazin-1-yl)dodecyl) nicotinamide]	100.00	100.00	100.00	100.00	100.00	
Cl.O=C(NCCCCCCCCCCCCN1CCNCC1)c1ccc(-c2ccccc2)o1 [Compound 90, 5-Phenyl-N-(12-(piperazin-1-yl)dodecyl) furan-2-carboxamide Hydrochloride]			100.00	100.00	100.00	
COC1CCN(CCCCCCCCCCCCNC(=O)c2cccnc2N)CC1 [Compound 94, 2-amino-N-(12-(4-methoxypiperidin-1-yl)dodecyl) nicotinamide]	100.00	100.00	100.00	100.00	100.00	
Nc1ncccc1C(=O)NCCCCCCCCCCCCN1CCN(C=O)CC1 [Compound 97, 2-amino-N-(12-(4-formylpiperazin-1-yl)dodecyl) nicotinamide]		100.00	100.00	100.00	100.00	
CC(C)(C)OC(=O)NC1CCN(CCCCCCCCCCCCNC(=O)c2cccnc2N)CC1 [Compound 101, tert-Butyl (1-(12-(2-aminonicotinamido)dodecyl)piperidin-4-yl)carbamate]						inhibition at 0.01 µM (compound 10 nM): -0.15%; inhibition at 0.1 µM (compound 100 nM): 100%; inhibition at 1 µM (compound 1 μM): 100%; inhibition at 10 µM (compound 10 μM): 100%; inhibition at 30 µM (compound 30 μM): 100%; inhibition at 50 µM (compound 50 μM): 100%
CC(C)N1CCN(CCCCCCCCCCCCNC(=O)c2cccnc2N)CC1 [Compound 104, 2-Amino-N-(12-(4-isopropylpiperazin-1-yl)dodecyl) nicotinamide]	100.00	100.00	100.00	100.00	100.00	Proliferation inhibition rate (%) (compound 10 nM): 100.00%
CC(C)(C)OC(=O)N1CCN(CCCCCCCCCCCCNC(=O)c2cccnc2N)CC1 [Compound 111, tert-butyl-4-(12-(2-aminonicotinamido)dodecyl) piperazine-1-carboxylate]	100.00	100.00	100.00	100.00	100.00	Proliferation inhibition rate (%) (compound 10 nM): 0.00%
CN1CCN(CCCCCCCCCCCCNC(=O)c2cccnc2F)CC1 [Compound 121, 2-fluoro-N-(12-(4-methylpiperazin-1-yl)dodecyl) nicotinamide]	0.00	0.00	30.00	100.00	100.00	Proliferation inhibition rate (%) (compound 10 nM): 0.00%
Nc1ncccc1C(=O)NCCCCCCCCCCCCN1CC(F)(F)C1 [Compound 122, 2-Amino-N-(12-(3,3-difluoroazetidin-1-yl)dodecyl) nicotinamide]	0.00	80.00	100.00	100.00	100.00	Proliferation inhibition rate (%) (compound 10 nM): 0.00%
COC1CCN(CCCCCCCCCCCCNC(=O)c2cccnc2N)C1 (centres unmarked) [Compound 126, 2-amino-N-(12-(3-methoxypyrrolidin-1-yl)dodecyl) nicotinamide]	100.00	100.00	100.00	100.00	100.00	Proliferation inhibition rate (%) (compound 10 nM, listed as K-PB-48, 0.01 µM): 0.00%
